No end group written: not given here.
How the values were obtained:
[1] = test system: C2C12 cells; assay: C2C12 cell proliferation (MTT method); assay type: cell-based, mouse; conditions: C2C12, peptide 1000 nM, 1 day, MTT; FIG. 4
Description: C2C12 cells, a mouse myoblast line, were cultured in Dulbecco's Modified Eagle's Medium (DMEM)+10% fetal bovine serum (FBS)+1% penicillin/streptomycin (P/S). To validate the effect of MIF peptide, C2C12 cells (2×10^3 cells/ml) were placed in a 12 well cell culture dish and attached for 24 hours, and MIF peptide (1000 nM) was treated for 1 day to observe cell proliferation by MTT method. The medium was replaced every 2 days, and the cells were cultured at 37° C.
To validate cell proliferation, the culture medium of the cells was removed, the cells were washed with DMEM, 500 μl of MTT reagent (0.5 mg/ml) dissolved in phosphate buffered saline (PBS) was added to each well, and the cells were left at 37° C. for 1 hour. The reaction solution was removed, and 1000 μl of DMSO was added to each well. Purple formazan crystals were completely dissolved in DMSO, and the absorbance was measured at 540 nm.

[2] = test system: C2C12 cells; assay: Scratch experiment, degree of cell recovery; assay type: cell-based, mouse; conditions: C2C12, 1000 nM peptide, 1 day in proliferation medium
Description: When the C2C12 cells were 100% grown, cells were scratches on the surface, treated with 1000 nM MIF1 or Ac-MIF1 peptides, and cultured for 1 day, followed by observation for a degree of cell recovery.

[3] = test system: C2C12 cells; assay: mRNA expression of myodifferentiation and sarcopenia factors (real-time PCR); assay type: cell-based, mouse; conditions: C2C12 myodifferentiation, peptide-treated vs untreated
Description: After adding 1 ml of TRIzol™ reagent, the cells were crushed using a sonicator. After centrifugation of the crushed sample (12,000 rpm, 10 min, 4° C.), the supernatant was transferred to a new tube, added with 200 μl of chloroform, and left at room temperature for 10 minutes. After 10 minutes, centrifugation (12,000 rpm, 10 min, 4° C.) was performed, yielded a transparent supernatant. Next, 500 μl of isopropanol was added, the mixture was left for 10 minutes, and centrifugation was performed to obtain RNA pellets. After washing by adding 70% ethanol (distilled water treated with ethanol+diethylpyrocarbonate (hereinafter referred to as DEPC)) to the RNA pellets, complete removal and drying were followed. The dried transparent RNA was added with DEPC-treated distilled water and then stored at −80° C. Total RNA volume was measured by nanodrop, and the 18s and 28s bands were detected in 1.2% agarose gel. cDNA was synthesized with 2 μg of total RNA, random hexamer primers, and reverse transcriptase (25° C.: 10 min, 37° C.: 120 min, 85° C.: 5 min).
Real-time PCR (RT-PCR) was performed for detecting gene expression. For observation of real-time gene expression, gene expression was analyzed using the Power SYBR Green PCR Master Mix, which includes fluorescent materials of SYBR green (7500 Real-time PCR system). The PCR primer was designed with Primer 3 software (http://frodo.wi.mit.edu) according to the nucleotide sequence secured from NCBI GenBank. PCR was performed 40 times at 95° C. for 10 minutes, again at 95° C. for 33 seconds, at gene primer temperature (tm) for 33 seconds, and at 72° C. for 33 seconds. Gene expression values were analyzed through the analysis of c(t) values obtained through real-time PCR analysis (fold change 2-^ΔΔCt formula). Setting the gene expression value of the untreated cells to 1, the gene expression value of the treated cells was calculated. In the analysis of gene c(t) values, normalization was conducted with the glyceraldehyde-3-phosphate dehydrogenase (GAPDH).

[4] = test system: C57BL/6 mice; assay: Myoregeneration effect upon injection of Ac-MIF1 peptide in cardiotoxin-damaged gastrocnemius; assay type: in vivo, mouse
From the text: The male C57BL/6 mice were purchased from Dae Han Bio Link Co., Ltd., four of which per cage were kept in a temperature-controlled room with a 12-hour light cycle. The animals were fed with a standard rodent diet containing 4.0% (wt/wt) total fat (Rodent NIH-31 Open Formula Auto; Zeigler Bros., Inc., Gardners, PA, USA) and water. All experiments involving animals complied with the guidelines (YUMC-AEC2015-006) issued by the Animal Control Committee of Youngnam University's Animal Research Institute. The MSTN knock-out mouse was provided by a laboratory at Seoul National University. Normal, MSTN+/− (heterozygous), and MSTN−/− (homozygous) adipose tissues were fixed by collecting from 6-week-old mice and stored at −80° C. until required for analysis.
Muscle tissues containing paraffin was subjected to deparaffinization with xylene and ethanol and hydration, respectively, and the tissue was soaked in 0.3% hydrogen peroxide water (H2O2)/methanol for 15 minutes to stop endogenous peroxidase activity. Then, tissues were stained with hematoxylin/eosin for morphological observation or reacted with 1% normal goat serum at room temperature for 1 hour to block a reaction with non-specific antibodies, followed by a reaction with the primary antibody (1:50) at 4° C. for over 16 hours. After 16 hours, washing was performed 3 times with PBS, followed by a reaction with secondary antibody (1:100) with HRP conjugated at room temperature for 1 hour. Horse radish peroxidase-conjugated streptavidin was added to detect the expression of the protein, followed by observation under a microscope.
In order to observe the myoregeneration effect following MIF peptide injection, mice were injected with Ac-MIF 1 peptide and injected/uninjected with cardiotoxin (hereinafter referred to as CTX) into the muscle, followed by observation of the morphology and regeneration of the muscle. A day after C57BL/6 mice were injected with Ac-MIF1 peptide (1.125 mM), […] cardiotoxin was injected into the gastrocnemius. Muscle tissues were sampled 7 days after CTX injection.
Paraffin-embedded muscle sections were deparaffinized using xylene, rehydrated using a concentration gradient of ethanol, stained with hematoxylin and eosin, observed under an optical microscope, magnified at 400× scale, and photographed, followed by measurement of the diameter of muscle fibers using Image J software.

[5] = test system: 3T3L1 cells; assay: Adipodifferentiation of 3T3L1 cells, Oil red O staining; assay type: cell-based, mouse; conditions: 3T3L1, adipocyte-induced differentiation medium with Ac-MIF1, 4 days; FIG. 13B
Description: For differentiation of 3T3L1 cells into adipocytes, when the cells grew about 100% or more, they were replaced with differentiation medium (DMEM+10% FBS+1% P/S+10 ug/ml insulin+1 μM dexametazone+0.5 μM IBMX (3-isobutyl-1-methylxanthine)) and cultured for 2 days. After 2 days, MIF was treated in a medium including 10 ug/ml insulin to induce cell differentiation.
3T3L1 cells were treated with peptides and differentiated for 4 days, then the medium was removed, and the cells were washed with normal saline, treated with 10% formaldehyde, and left for 10 minutes. After 10 minutes, Oil-red O staining agents (6 ([…] Oil-red O reagent+1 ml 100% isopropanol):4 (distilled water)) were treated and left for 1 hour. After 1 hour, cells were washed with normal saline and then observed under a microscope. To measure the Oil-red O stained in the intracellularly differentiated cells, 100% isopropanol was added and collected, followed by measurement at 510 nm.

[6] = muscle injected with Ac-MIF1 peptide, 7 days after CTX, FIG. 10A
[7] = muscle injected with Ac-MIF1 peptide, 7 days after CTX, FIG. 10B

“Ac-VDFEAFWDWG [Ac-MIF1, MIF1 with N-terminus acetylated, 10 mer]” was tested, and the “cell proliferation, increase compared to cells without peptide treatment” value [1] was 24%, the “scratch recovery degree, increase compared to untreated cells” value [2] was 28% and the “MYL2 mRNA expression” value [3] was “increased”. The “MYOD mRNA expression” value [3] was “increased”, the “muscle weight compared to muscle without injection” value ([4]; 7 days after CTX injection) was “no significant difference” and the muscle weight ([4]; CTX + Ac-MIF 1, gastrocnemius, 7 days after CTX injection) was 0.140 ± 0.003 g. The “MSTN mRNA expression in muscle” value [4, 6] was “increased”, the “MYL2 mRNA expression in muscle” value [4, 6] was “increased” and the “MYOD mRNA expression in muscle” value [4, 6] was “increased”. The “MYL2 protein expression in muscle” value [4, 7] was “increased”, the “MYOD protein expression in muscle” value [4, 7] was “increased” and the “MYOG protein expression in muscle” value [4, 7] was “increased”. For the same substance, the “Pax7 protein expression in muscle” value [4, 7] was “increased”, the “diameter of the muscle fibers compared to without peptide injection” value ([4]; muscle injected with Ac-MIF1 peptide, 7 days after CTX, FIG. 10C) was “increased” and the “fat accumulation (Oil-red O intensity), decrease compared to cells without peptide treatment” value [5] was 8%.

Source: patent US20250090626A1, “NEW PEPTIDE AND USES THEREOF” (Neo Cremar Co., Ltd., priority 2021, published 2025)
